Measured values reported in PubChem BioAssay (NCI).
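48-hour exposure; five concentrations; linearly interpolated endpoints. At the TGI there is no net growth.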

Key:
Assay in all cases: NCI tumour cell line growth inhibition, 48 h
DMS 114 small cell lung = system: DMS 114 small cell lung
HOP-18 NSCLC = system: HOP-18 NSCLC
KM20L2 colon = system: KM20L2 colon
LXFL 529 NSCLC = system: LXFL 529 NSCLC
M19-MEL melanoma = system: M19-MEL melanoma
RXF-631 renal = system: RXF-631 renal
DLD-1 colon = system: DLD-1 colon
P388 leukemia = system: P388 leukemia
SN12K1 renal = system: SN12K1 renal
XF 498 CNS = system: XF 498 CNS

Row | Compound | TGI (DMS 114 small cell lung) [µM] | TGI (HOP-18 NSCLC) [µM] | TGI (KM20L2 colon) [µM] | TGI (LXFL 529 NSCLC) [µM] | TGI (M19-MEL melanoma) [µM] | TGI (RXF-631 renal) [µM] | TGI (DLD-1 colon) [µM] | TGI (P388 leukemia) [µM] | TGI (SN12K1 renal) [µM] | TGI (XF 498 CNS) [µM]
1 | c1ccc(OCCSCCCCCCCCCCSCCOc2ccccc2)cc1 | > 100 | > 100 | > 100 | > 100 | > 100 | > 100 |  |  |  | 
2 | C/C(=N\Nc1ccccc1)C(CN(C)C)C(c1ccccc1)c1c(O)c2ccccc2oc1=O (centres undefined) | > 100 |  | > 100 | > 100 | > 100 | > 100 |  |  |  | 
3 | Cc1cc(=O)[nH]c(NNC(C#N)c2ccc([N+](=O)[O-])cc2)n1 (centres undefined) | > 100 | > 100 | > 100 | > 100 | > 100 |  | > 100 |  |  | 
4 | Nc1c(N=Nc2ccc(-c3ccc(N=Nc4c(O)ccc5cc(S(=O)(=O)O)cc(S(=O)(=O)O)c45)cc3)cc2)c(S(=O)(=O)O)cc2cc(S(=O)(=O)O)c(N=Nc3ccccc3)c(O)c12 | > 100 | > 100 |  |  | > 100 |  | > 100 | > 100 | > 100 | > 100
5 | CC(=O)Nc1ccc(C(=O)N2N=C(C)/C(=C/c3ccc(O)cc3)C2=O)cc1 | > 100 |  |  |  | > 100 |  | > 100 |  |  | > 100
6 | OC12CCCCCC1(N1CCOCC1)c1ccccc12 (centres undefined) | > 100 | > 100 | > 100 | > 100 | > 100 |  |  |  |  | 
7 | CC(=O)NC1=C(NCC(C)C)C(=O)c2ccccc2C1=O | 31.7 | 29.5 | 43.9 | 34.4 | 34.2 |  | 40.1 |  |  | 27
8 | COC(=O)n1c(C[P+](c2ccccc2)(c2ccccc2)c2ccccc2)cc2ccccc21 | 9.29 |  | 10.7 | 3.73 | 13.1 |  | 11.4 |  |  | 6.09
9 | CCN(CC)CCCCC1CCN(CC(=O)N2c3ccccc3NC(=O)CC2C)CC1 (centres undefined) | > 100 | > 100 | > 100 | > 100 | > 100 | > 100 |  |  |  | 
10 | C/C(=C\Cc1cc(O)ccc1O)CCc1c(C)cc(O)c(C=O)c1C | 31.2 | 53.4 | > 100 | 30.2 |  |  | 55.1 |  |  | 45.2
11 | O=c1c2c(nc3n1CCC3)sc1c(O)c(Br)ccc12 | 32.4 | > 100 | 35.9 |  | 32.8 |  | > 100 |  |  | 36.8
12 | COC(=O)CC(NC(=O)OCc1ccccc1)C(C(=O)OCc1ccccc1)C1(C)OCCO1 (centres undefined) | 82.6 |  | > 100 | 73 | > 100 | > 100 | > 100 |  |  | 42.3
13 | CC1(C)COC(c2c(-c3ccccc3)noc2CS(=O)c2ccccc2)=N1 (centres undefined) | 99.1 | 86.4 | > 100 | > 100 | > 100 |  | > 100 |  |  | 
14 | COc1ccc(-c2c3ccccc3c(-c3ccc(OCCCCCBr)cc3)c3ccccc23)cc1 | > 100 |  | > 100 | > 100 | > 100 |  | > 100 |  |  | 
15 | Cc1cc2occ(-c3ccc(Cl)cc3)c2c(=O)o1 | > 100 | > 100 | > 100 | > 100 |  | > 100 | > 100 |  |  | 
16 | CC(C)(C)CC(C)(C)c1ccc(OCCOCC[N+](C)(C)Cc2ccccc2)cc1 | 4.02 | 7.32 | 18.8 |  |  | 34.2 | 20.3 |  |  | 
17 | CCOC1=C2NC(Cc3ccc(F)cc3)=NC2C(=O)c2ccccc21 (centres undefined) | 61.9 |  | > 100 | 77.3 | 39.5 | > 100 | > 100 |  |  | 
